# Where a name gives a salt, the structure may show the parent alone.
# Target: T1, IRAK4 (Homo sapiens, UniProt Q9NWZ3)
# T1 sequence (Q9NWZ3 1-460): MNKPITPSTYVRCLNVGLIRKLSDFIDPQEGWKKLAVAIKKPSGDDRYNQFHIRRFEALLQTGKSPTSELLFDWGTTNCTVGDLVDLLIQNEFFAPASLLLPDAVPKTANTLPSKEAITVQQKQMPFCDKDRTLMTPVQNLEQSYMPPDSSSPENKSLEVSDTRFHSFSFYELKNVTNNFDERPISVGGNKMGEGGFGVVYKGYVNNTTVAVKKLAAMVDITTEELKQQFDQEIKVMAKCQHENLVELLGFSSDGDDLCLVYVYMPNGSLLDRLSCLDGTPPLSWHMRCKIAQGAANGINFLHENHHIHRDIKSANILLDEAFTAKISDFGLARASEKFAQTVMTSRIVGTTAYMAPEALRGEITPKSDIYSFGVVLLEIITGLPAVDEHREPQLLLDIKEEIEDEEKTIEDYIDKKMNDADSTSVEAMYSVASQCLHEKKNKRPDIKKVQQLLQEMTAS
# Test: 2-hour 1 mM ATP IRAK4 Biochemical assay (as above, but with 100 pM IRAK4 and 1 mM ATP)
# Conditions: IRAK4 MSD BIOCHEMICAL (1 mM ATP) IC50 (μM), 100 pM IRAK4, 2 hours
# Method in brief: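 MSD electrochemiluminescence read-out: biotinylated peptide product bound to streptavidin plates, probed with anti-P-Thr rabbit antibody and Sulfo-Tag goat anti-rabbit. Kinase reaction used 1 mM ATP and 100 pM IRAK4 over 2 hours before EDTA quench.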
row,SMILES,IC50
1,"CC(C)Oc1cc2nc(C3CCOCC3)cn2cc1NC(=O)c1cc2ccccn2n1 [Example 381, N-(7-isopropoxy-2-(tetrahydro-2H-pyran-4-yl)imidazo[1,2-a]pyridin-6-yl)pyrazolo[1,5-a]pyridine-2-carboxamide 2,2,2-trifluoroacetate]",0.004 µM
2,"COc1nc(NC(=O)c2cccc(C3CC3)n2)cn2cc(C3CCOCC3)nc12 [Example 334, 6-cyclopropyl-N-(8-methoxy-2-(tetrahydro-2H-pyran-4-yl)imidazo[1,2-a]pyrazin-6-yl)picolinamide]",0.008 µM
3,"COc1nc(NC(=O)c2cccc(C(F)F)n2)cn2cc(C3COCCO3)nc12 (stereo not shown) [Example 278, N-(2-(1,4-dioxan-2-yl)-8-methoxyimidazo[1,2-a]pyrazin-6-yl)-6-(difluoromethyl)picolinamide]",0.023 µM
4,"O=C(Nc1cn2cc(C3CCOCC3)nc2cc1C(F)(F)F)c1cccc(C(F)F)n1 [Example 312, 6-(difluoromethyl)-N-(2-(tetrahydro-2H-pyran-4-yl)-7-(trifluoromethyl)imidazo[1,2-a]pyridin-6-yl)picolinamide]",0.052 µM
5,"CC12CC(c3cn4cc(NC(=O)c5cccc(C(F)F)n5)ccc4n3)(CO1)C2 [Example 357, 6-(difluoromethyl)-N-(2-(1-methyl-2-oxabicyclo[2.1.1]hexan-4-yl)imidazo[1,2-a]pyridin-6-yl)picolinamide]",0.03 µM
6,"CC(C)Cc1cc2nc(C3CCOCC3)cn2cc1NC(=O)c1cccc(C(F)F)n1 [Example 404, 6-(difluoromethyl)-N-(7-isobutyl-2-(tetrahydro-2H-pyran-4-yl)imidazo[1,2-a]pyridin-6-yl)picolinamide]",0.004 µM
7,"Cc1nc(C(=O)Nc2cn3cc(C45COC(C)(C4)C5)nc3c(OC3CCC3)n2)co1 [Example 484, N-(8-cyclobutoxy-2-(1-methyl-2-oxabicyclo[2.1.1]hexan-4-yl)imidazo[1,2-a]pyrazin-6-yl)-2-methyloxazole-4-carboxamide]",0.02 µM

# Other lines, results leading:
row,IC50,SMILES
1,0.032 µM,"Cc1cc(NC(=O)c2cccc(C(F)F)n2)cn2cc(C34COC(C)(C3)C4)nc12 [Example 406, 6-(difluoromethyl)-N-(8-methyl-2-(1-methyl-2-oxabicyclo[2.1.1]hexan-4-yl)imidazo[1,2-a]pyridin-6-yl)picolinamide]"
2,0.055 µM,"COc1nc(NC(=O)c2cccc(C(F)F)n2)cn2cc(C34COCC3C4)nc12 (stereo not shown) [Example 550, N-(2-(3-oxabicyclo[3.1.0]hexan-1-yl)-8-methoxyimidazo[1,2-a]pyrazin-6-yl)-6-(difluoromethyl)picolinamide 2,2,2-trifluoroacetate]"
3,0.032 µM,"COc1nc2nc(C3CC(OC)C3)cn2cc1NC(=O)c1cccc(C(F)F)n1 (stereo not shown) [Example 564, 6-(difluoromethyl)-N-(7-methoxy-2-(3-methoxycyclobutyl)imidazo[1,2-a]pyrimidin-6-yl)picolinamide]"
4,0.064 µM,"COc1nc(NC(=O)c2cccc(C(F)(F)F)n2)cn2cc(C34COC(C)(C3)C4)nc12 [Example 449, N-(8-methoxy-2-(1-methyl-2-oxabicyclo[2.1.1]hexan-4-yl)imidazo[1,2-a]pyrazin-6-yl)-6-(trifluoromethyl)picolinamide 2,2,2-trifluoroacetate]"
5,0.005 µM,"CCOc1nc2nc(C3CCOCC3)cn2cc1NC(=O)c1ccc2c(n1)CCC2 [Example 570, N-(7-ethoxy-2-(tetrahydro-2H-pyran-4-yl)imidazo[1,2-a]pyrimidin-6-yl)-6,7-dihydro-5H-cyclopenta[b]pyridine-2-carboxamide hydrochloride]"
6,0.199 µM,"CC(C)Oc1nc2nc(C34COC(C)(C3)C4)c(Cl)n2cc1NC(=O)c1cccc(C(F)F)n1 [Example 576, N-(3-chloro-7-isopropoxy-2-(1-methyl-2-oxabicyclo[2.1.1]hexan-4-yl)imidazo[1,2-a]pyrimidine-6-yl)-6-(difluoromethyl)picolinamide 2,2,2-trifluoroacetate]"
7,0.006 µM,"COc1nc(NC(=O)c2cccc(C(F)F)n2)cn2cc(C3CC4(CCOC4)C3)nc12 (stereo not shown) [Example 557, 6-(difluoromethyl)-N-(8-methoxy-2-(6-oxaspiro[3.4]octan-2-yl)imidazo[1,2-a]pyrazin-6-yl)picolinamide 2,2,2-trifluoroacetate]"
8,0.002 µM,"CCCOc1nc(NC(=O)c2cccc(C(F)F)n2)cn2cc(C34COC(C)(C3)C4)nc12 [Example 574, 6-(difluoromethyl)-N-(2-(1-methyl-2-oxabicyclo[2.1.1]hexan-4-yl)-8-propoxyimidazo[1,2-a]pyrazin-6-yl)picolinamide]"
9,0.023 µM,"COc1ccccc1C(=O)Nc1cn2cc(C34COC(C)(C3)C4)nc2c(OC)n1 [Example 443, 2-methoxy-N-(8-methoxy-2-(1-methyl-2-oxabicyclo[2.1.1]hexan-4-yl)imidazo[1,2-a]pyrazin-6-yl)benzamide]"
10,0.05 µM,"COc1cc(NC(=O)c2cccc(C(F)F)n2)cn2cc(C34CC(F)(C3)C4)nc12 [Example 535, 6-(difluoromethyl)-N-(2-(3-fluorobicyclo[1.1.1]pentan-1-yl)-8-methoxyimidazo[1,2-a]pyridin-6-yl)picolinamide]"
11,0.025 µM,"CCOc1nc(NC(=O)c2cccc(C)n2)cn2cc(C3CCOCC3)nc12 [Example 474, N-(8-ethoxy-2-(tetrahydro-2H-pyran-4-yl)imidazo[1,2-a]pyrazin-6-yl)-6-methylpicolinamide 2,2,2-trifluoroacetate]"
12,0.022 µM,"CCOc1ncccc1C(=O)Nc1cn2cc(C3CCOCC3)nc2c(OC)n1 [Example 459, 2-ethoxy-N-(8-methoxy-2-(tetrahydro-2H-pyran-4-yl)imidazo[1,2-a]pyrazin-6-yl)nicotinamide]"

# Same assay, conditions: read-out: IRAK4 MSD BIOCHEMICAL (1 mM ATP) IC50, 100 pM IRAK4, 2 hours
row,IC50,SMILES
1,0.004 µM,"COc1nc(NC(=O)c2cccc(C(F)F)n2)cn2cc(C3CCCOC3)nc12 (single isomer, unassigned) [Example 298, 6-(difluoromethyl)-N-(8-methoxy-2-(tetrahydro-2H-pyran-3-yl)imidazo[1,2-a]pyrazin-6-yl)picolinamide]"

# Target: T1, IRAK4
# Test: 2-hour 10 μM ATP Biochemical Assay (MesoScale Detection format; IRAK4 phosphorylation of biotin labeled IRAK1 activation loop peptide)
# Conditions: IRAK4 MSD BIOCHEMICAL (10 μM ATP) IC50 (μM), 1 nM IRAK4, 2 hours
# Experimental: The 2-hour 10 μM ATP Biochemical Assay employs a MesoScale Detection (MSD) format.
# The activity is quenched with 11 μl of 70 mM EDTA, pH 8.
# To detect the phosphorylated biotinylated peptide substrate, 30 μl of the quenched reaction mixture is added to equivalent wells of a 384 well streptavidin coated MesoScale plate (Meso Scale Discovery #L21SA-1). After a 1 hour incubation of the plate for 1 hour at room temperature with gentle mixing, the plate wells are washed 3 times with 50 mM Tris, pH 7.5, 150 mM NaCl, 0.02% Tween-20.
# A 25 μl volume of 1:500 anti-P-Threonine Rabbit polyclonal Antibody plus 1:500 Goat-anti-Rabbit Sulfo Tag Antibody (Meso Scale Discovery R32AB-1) in 50 mM Tris, pH 7.5, 150 mM NaCl, 0.02% Tween-20 plus 2% BSA is then added to each well. After a 1-hour incubation of the plate for 1 hour at room temperature with gentle mixing, the plate wells are washed, 3 times with 50 mM Tris, pH 7.5, 150 mM NaCl, 0.02% Tween-20. A 40 μl volume of 2×MSD Read Buffer (Meso Scale Discovery R92TC-1) is added to each well, and the plate is read immediately in an MSD Plate Reader (Meso Scale Discovery).
row,IC50,SMILES
1,2.21 µM,"CCOc1cc2nc(CN3CCOCC3)cn2cc1NC(=O)c1cccc(C(F)F)n1 [Example 121, 6-(difluoromethyl)-N-(7-ethoxy-2-(morpholinomethyl)imidazo[1,2-a]pyridin-6-yl)picolinamide]"
2,0.22 µM,"CCOc1cc2nc(CC3CCOC3)cn2cc1NC(=O)c1nc(C)co1 (stereo not shown) [Example 154, N-(7-ethoxy-2-((tetrahydrofuran-3-yl)methyl)imidazo[1,2-a]pyridin-6-yl)-4-methyloxazole-2-carboxamide]"
3,0.002 µM,"CCOc1cc2nc(C(C)(C)C#N)cn2cc1NC(=O)c1cccc(C(F)CF)n1 (stereo not shown) [Example 245, N-(2-(2-cyanopropan-2-yl)-7-ethoxyimidazo[1,2-a]pyridin-6-yl)-6-(1,2-difluoroethyl)picolinamide]"
4,1.1 µM,"CCOc1cc2nc(CC)cn2cc1NC(=O)c1ccc2c(c1)CCOC2 [Example 47, N-(7-ethoxy-2-ethylimidazo[1,2-a]pyridin-6-yl)isochromane-6-carboxamide]"
5,0.001 µM,"CCOc1cc2nc(C3CCN(C)C(=O)C3)cn2cc1NC(=O)c1cccc(C(F)F)n1 (racemic) [Example 75, 6-(difluoromethyl)-N-(7-ethoxy-2-(1-methyl-2-oxopiperidin-4-yl)imidazo[1,2-a]pyridin-6-yl)picolinamide]"
6,0.061 µM,"O=C(Nc1cn2cc(C3CC3)nc2cc1OCCN1CCOCC1)c1cccc(C(F)F)n1 [Example 102, N-(2-cyclopropyl-7-(2-morpholinoethoxy)imidazo[1,2-a]pyridin-6-yl)-6-(difluoromethyl)picolinamide]"
7,0.063 µM,"CCOc1cc2nc(C3CC3)cn2cc1NC(=O)c1cccc(OC(F)(F)F)n1 [Example 118, N-(2-cyclopropyl-7-ethoxyimidazo[1,2-a]pyridin-6-yl)-6-(trifluoromethoxy)picolinamide]"
8,0.001 µM,"CCOc1cc2nc([C@H]3C[C@H](OC)C3)cn2cc1NC(=O)c1cccc(C(F)F)n1 [Example 114, 6-(difluoromethyl)-N-(7-ethoxy-2-((1r,3r)-3-methoxycyclobutyl)imidazo[1,2-a]pyridin-6-yl)picolinamide]"

# Source: patent US20220089592A1, “IMIDAZO[1,2-A]PYRIDINYL DERIVATIVES AS IRAK4 INHIBITORS” (priority 2019, published 2022)
